# Source: ChEMBL document CHEMBL5344429, “1,3-Substituted β-Carboline Derivatives as Potent Chemotherapy for the Treatment of Cystic Echinococcosis” (J Med Chem, 2023)
# Active and inactive are the calls of the source. The calls are words filed in the database; no cut-off is given here.
# Legend:
# [1] = Cmax in Wistar rat at 5 mg/kg, iv by HPLC analysis; type: ADME, organism-based; set-up: dose 5 mg/kg, route iv; conditions: in vivo
# [2] = Oral bioavailability in Wistar rat at 50 mg/kg, […] by HPLC analysis; type: ADME, organism-based; conditions: in vivo
# Echinococcus granulosus [3] = assay: Parasiticidal activity against Echinococcus granulosus protoscolices assessed as partial vacuolar change at 5 uM incubated for 4 days by scanning electron microscopy analysis; type: functional, organism-based; conditions: time 4.0 day
# Echinococcus granulosus [4] = assay: Parasiticidal activity against Echinococcus granulosus protoscolices assessed as degeneration of outer skin at 5 uM incubated for 4 days by scanning electron microscopy; type: functional, organism-based; conditions: time 4.0 day
# Echinococcus granulosus [5] = assay: Parasiticidal activity against Echinococcus granulosus protoscolices assessed as appearance of body shrank at 5 uM incubated for 4 days by scanning electron microscopy analysis; type: functional, organism-based; conditions: time 4.0 day
# Echinococcus granulosus [6] = assay: Parasiticidal activity against Echinococcus granulosus protoscolices assessed as increase in death rate at 5 uM incubated for 4 days by darker staining-based light microscopy; type: functional, organism-based; conditions: time 4.0 day
# Echinococcus granulosus [7] = assay: Parasiticidal activity against Echinococcus granulosus protoscolices assessed as death rate at 1 uM incubated for 48 hrs by eosin exclusion test; type: functional
# Echinococcus granulosus [8] = assay: Parasiticidal activity against Echinococcus granulosus protoscolices assessed as appearance of rostellum hooks fall off at 5 uM incubated for 4 days by scanning electron microscopy analysis; type: functional, organism-based; conditions: time 4.0 day
# Echinococcus granulosus [9] = assay: Parasiticidal activity against Echinococcus granulosus cyst assessed as formation of dense aggregates at 100 uM incubated for 4 days by scanning electron microscopy; type: functional, organism-based; conditions: time 4.0 day
# Echinococcus granulosus [10] = assay: Parasiticidal activity against Echinococcus granulosus protoscolices […] by eosin exclusion test; type: functional; conditions: 1152 h, time 48 day
# Echinococcus granulosus [11] = assay: Parasiticidal activity against Echinococcus granulosus protoscolices assessed as death rate at 0.5 uM incubated for 4 days by eosin exclusion test; type: functional; conditions: time 4 day
# Echinococcus granulosus [12] = assay: Parasiticidal activity against Echinococcus granulosus protoscolices assessed as death rate at 5 uM incubated for 4 days by eosin exclusion test; type: functional; conditions: time 4 day
# Echinococcus granulosus [13] = assay: Parasiticidal activity against Echinococcus granulosus protoscolices assessed as loss of suckers at 5 uM incubated for 4 days by scanning electron microscopy; type: functional; conditions: time 4.0 day
# [14] = AUC (0 to infinity) in Wistar rat at 5 mg/kg, iv by HPLC analysis; type: ADME, organism-based; set-up: dose 5 mg/kg, route iv; conditions: in vivo
# Echinococcus granulosus [15] = assay: Parasiticidal activity against Echinococcus granulosus protoscolices assessed as change in ultrastructure at 5 uM incubated for 4 days by scanning electron microscopy; type: functional, organism-based; conditions: time 4.0 day
# Echinococcus granulosus [16] = assay: Parasiticidal activity against Echinococcus granulosus protoscolices assessed as lethal effect incubated for 4 days by eosin exclusion test; type: functional, organism-based; conditions: dose 0.5-5 µM, time 4.0 day
# Echinococcus granulosus [17] = assay: Parasiticidal activity against Echinococcus granulosus cyst assessed as seperation from cuticle at 100 uM incubated for 4 days by scanning electron microscopy; type: functional, organism-based; conditions: time 4.0 day
# Echinococcus granulosus [18] = assay: Parasiticidal activity against Echinococcus granulosus protoscolices assessed as appearance of blurred marginal structure at 5 uM incubated for 4 days by scanning electron microscopy analysis; type: functional, organism-based; conditions: time 4.0 day
# Echinococcus granulosus [19] = assay: Parasiticidal activity against Echinococcus granulosus protoscolices assessed as lethal effect at 0.5 to 5 uM by eosin exclusion test; type: functional, organism-based; conditions: dose 0.5-5 µM, TDE = time-dependent effect
# Echinococcus granulosus [20] = assay: Parasiticidal activity against Echinococcus granulosus protoscolices assessed as loss of hooks at 5 uM incubated for 4 days by scanning electron microscopy; type: functional, organism-based; conditions: time 4.0 day
# Echinococcus granulosus [21] = assay: Parasiticidal activity against Echinococcus granulosus assessed as collapse of germinal layers at 100 uM incubated for 4 days by scanning electron microscopy; type: functional, organism-based; conditions: time 4.0 day
# Echinococcus granulosus [22] = assay: Parasiticidal activity against Echinococcus granulosus assessed as cyst destruction at 100 uM incubated for 4 days by scanning electron microscopy; type: functional, organism-based; conditions: time 4.0 day
# Echinococcus granulosus [23] = assay: Induction of autophagy in Echinococcus granulosus protoscolices assessed as increase in ATG5 expression level at 5 uM measured after 4 days by Western blot analysis; type: functional, organism-based; conditions: time 4.0 day
# Echinococcus granulosus [24] = assay: Parasiticidal activity against Echinococcus granulosus protoscolices assessed as appearance of partial shedding at 5 uM incubated for 4 days by H and E staining based assay; type: functional, organism-based; conditions: time 4.0 day
# [25] = Neurotoxicity in Kunming mouse assessed as loosely arranged pyramidal cells in brain at 50 mg/kg, ip administered for 28 days by H and E staining based assay; type: toxicity, organism-based; conditions: in vivo, 672 h, time 28 day
# Echinococcus granulosus [26] = assay: Parasiticidal activity against Echinococcus granulosus protoscolices assessed as appearance of relative completion of sucker at 5 uM incubated for 2 days by scanning electron microscopy; type: functional, organism-based; conditions: time 2.0 day
# [27] = Neurotoxicity in Kunming mouse assessed as blurred synaptic space in hippocampal at 50 mg/kg, ip administered for 28 days by TEM analysis; type: toxicity, organism-based; conditions: in vivo, 672 h, time 28 day
# [28] = Neurotoxicity in Kunming mouse assessed as widened perinuclear space in hippocampal neurons at 50 mg/kg, ip administered for 28 days by TEM analysis; type: toxicity, organism-based; conditions: in vivo, 672 h, time 28 day
# Echinococcus granulosus [29] = assay: Parasiticidal activity against Echinococcus granulosus microcyst infected in kunming mouse assessed as mean cyst weight at 12.5 mg/kg, ip administered for 28 days; type: functional; conditions: time 28 day
# Echinococcus granulosus [30] = assay: Parasiticidal activity against Echinococcus granulosus microcyst infected in kunming mouse assessed as mean cyst weight at 50 mg/kg, ip administered for 14 days; type: functional; conditions: time 14 day
# Echinococcus granulosus [31] = assay: Parasiticidal activity against intraperitoneal cystic Echinococcus granulosus infected in Kunming mouse assessed as decrease number of microvilli at 50 mg/kg, ip administered for 28 days by TEM analysis; type: functional, organism-based; conditions: time 28.0 day
# Echinococcus granulosus [32] = assay: Induction of autophagy in Echinococcus granulosus protoscolices assessed as decrease in p62 expression level at 5 uM measured after 4 days by Western blot analysis; type: functional, organism-based; conditions: time 4.0 day
# Echinococcus granulosus [33] = assay: Parasiticidal activity against intraperitoneal cystic Echinococcus granulosus infected in Kunming mouse assessed as appearance of unclear cortex at 50 mg/kg, ip administered for 28 days by TEM analysis; type: functional, organism-based; conditions: time 28.0 day
# Echinococcus granulosus [34] = assay: Parasiticidal activity against Echinococcus granulosus microcyst infected in kunming mouse assessed as reduction in cyst weight at 12.5 mg/kg, ip administered for 28 days relative to control; type: functional; set-up: scale not given: the % may be the effect or the level left; conditions: time 28 day
# [35] = Neurotoxicity in Kunming mouse assessed as increased postsynaptic density in hippocampal at 50 mg/kg, ip administered for 28 days by TEM analysis; type: toxicity, organism-based; conditions: in vivo, 672 h, time 28 day
# Echinococcus granulosus [36] = assay: Parasiticidal activity against Echinococcus granulosus protoscolices assessed as body shrank with irregular edge at 5 uM incubated for 4 days by H and E staining based assay; type: functional, organism-based; conditions: time 4.0 day
# [37] = Neurotoxicity in Kunming mouse assessed as deformed pyramidal cells in brain at 50 mg/kg, ip administered for 28 days by H and E staining based assay; type: toxicity, organism-based; conditions: in vivo, 672 h, time 28 day
# Echinococcus granulosus [38] = assay: Parasiticidal activity against Echinococcus granulosus microcyst infected in kunming mouse assessed as reduction in cyst weight at 50 mg/kg, ip administered for 14 days relative to control; type: functional; set-up: scale not given: the % may be the effect or the level left; conditions: time 14 day
# Echinococcus granulosus [39] = assay: Parasiticidal activity against Echinococcus granulosus microcyst infected in kunming mouse assessed as mean cyst weight at 50 mg/kg, ip administered for 28 days; type: functional; conditions: time 28 day
# [40] = Neurotoxicity in Kunming mouse assessed as swollen pyramidal cells in brain at 50 mg/kg, ip administered for 28 days by H and E staining based assay; type: toxicity, organism-based; conditions: in vivo, 672 h, time 28 day
# Echinococcus granulosus [41] = assay: Parasiticidal activity against Echinococcus granulosus microcyst infected in kunming mouse assessed as reduction in cyst weight at 12.5 mg/kg, ip administered for 14 days relative to control; type: functional; set-up: scale not given: the % may be the effect or the level left; conditions: time 14 day
# Echinococcus granulosus [42] = assay: Parasiticidal activity against Echinococcus granulosus microcyst infected in kunming mouse assessed as reduction in cyst weight at 50 mg/kg, ip administered for 28 days relative to control; type: functional; set-up: scale not given: the % may be the effect or the level left; conditions: time 28 day
# Echinococcus granulosus [43] = assay: Induction of autophagy in Echinococcus granulosus protoscolices assessed as increase in Beclin1 expression level at 5 uM measured after 4 days by Western blot analysis; type: functional, organism-based; conditions: time 4.0 day
# Echinococcus granulosus [44] = assay: Parasiticidal activity against Echinococcus granulosus protoscolices assessed as survival rate at 1 uM incubated for 48 hrs by eosin exclusion test; type: functional
# Echinococcus granulosus [45] = assay: Parasiticidal activity against Echinococcus granulosus microcyst infected in kunming mouse assessed as mean cyst weight at 25 mg/kg, ip administered for 14 days; type: functional; conditions: time 14 day
# Echinococcus granulosus [46] = assay: Parasiticidal activity against Echinococcus granulosus microcyst infected in kunming mouse assessed as mean cyst weight at 12.5 mg/kg, ip administered for 14 days; type: functional; conditions: time 14 day
# Echinococcus granulosus [47] = assay: Parasiticidal activity against Echinococcus granulosus microcyst infected in kunming mouse assessed as reduction in cyst weight at 25 mg/kg, ip administered for 14 days relative to control; type: functional; set-up: scale not given: the % may be the effect or the level left; conditions: time 14 day
# Echinococcus granulosus [48] = assay: Parasiticidal activity against Echinococcus granulosus microcyst infected in kunming mouse assessed as reduction in cyst weight at 25 mg/kg, ip administered for 28 days relative to control; type: functional; set-up: scale not given: the % may be the effect or the level left; conditions: time 28 day
# Echinococcus granulosus [49] = assay: Parasiticidal activity against Echinococcus granulosus protoscolices assessed as outer skin and hooks fall off at 5 uM incubated for 2 days by scanning electron microscopy; type: functional, organism-based; conditions: time 2.0 day
# Echinococcus granulosus [50] = assay: Parasiticidal activity against Echinococcus granulosus microcyst infected in kunming mouse assessed as mean cyst weight at 25 mg/kg, ip administered for 28 days; type: functional; conditions: time 28 day
# [51] = Neurotoxicity in Kunming mouse assessed as partial cristae in hippocampal at 50 mg/kg, ip administered for 28 days by TEM analysis; type: toxicity, organism-based; conditions: in vivo, 672 h, time 28 day
# [52] = Neurotoxicity in Kunming mouse assessed as incomplete mitochondrial membrane in hippocampal at 50 mg/kg, ip administered for 28 days by TEM analysis; type: toxicity, organism-based; conditions: in vivo, 672 h, time 28 day
# Echinococcus granulosus [53] = assay: Parasiticidal activity against intraperitoneal cystic Echinococcus granulosus infected in Kunming mouse assessed as reduction in cell count with clear nucleolus at 50 mg/kg, ip administered for 28 days by TEM analysis; type: functional, organism-based; conditions: time 28.0 day
compound,measurement,setting,value
COc1ccc(-c2nc(NC(=O)c3ccc(CN4CCC(N5CCCCC5)CC4)cc3)cc3c2[nH]c2ccccc23)cc1OC,Cmax,[1],1400 ng/mL
same,bioavailability,[2],26.8%
same,Activity,Echinococcus granulosus [3],Active
same,Activity,Echinococcus granulosus [4],Active
same,Activity,Echinococcus granulosus [5],Active
same,Activity,Echinococcus granulosus [6],Active
same,Activity,Echinococcus granulosus [7],56.27%
same,Activity,Echinococcus granulosus [8],Active
same,Activity,Echinococcus granulosus [9],Active
same,LC50,Echinococcus granulosus [10],3.59 µM
same,Activity,Echinococcus granulosus [11],>50%
same,Activity,Echinococcus granulosus [12],>90%
same,Activity,Echinococcus granulosus [13],Active
same,AUC(0-inf),[14],1770 ng·h/mL
same,Activity,Echinococcus granulosus [15],Active
same,Activity,Echinococcus granulosus [16],Dose-Dependent Effect
same,Activity,Echinococcus granulosus [17],Active
same,Activity,Echinococcus granulosus [18],Active
same,Activity,Echinococcus granulosus [19],Tde
same,Activity,Echinococcus granulosus [20],Active
same,Activity,Echinococcus granulosus [21],Active
COc1cccc(-c2nc(C(=O)Nc3ccc(CN4CCC(N5CCCCC5)CC4)cc3)cc3c2[nH]c2ccccc23)c1OC,Activity,Echinococcus granulosus [7],Active
same,LC50,Echinococcus granulosus [10],5.8 µM
COc1ccc2c(c1)[nH]c1c(C)nccc12 [HARMINE],Activity,Echinococcus granulosus [22],inactive
same,Activity,Echinococcus granulosus [23],Active
same,Activity,Echinococcus granulosus [24],Active
same,Activity,[25],Toxic
same,Activity,Echinococcus granulosus [26],Active
same,LC50,Echinococcus granulosus [10],135 µM
same,Activity,[27],Toxic
same,Activity,[28],Toxic
same,Activity,Echinococcus granulosus [29],26.6 mg
same,Activity,Echinococcus granulosus [30],22.7 mg
same,Activity,Echinococcus granulosus [31],Active
same,Activity,Echinococcus granulosus [32],Active
same,Activity,Echinococcus granulosus [33],Active
same,Activity,Echinococcus granulosus [34],67.17%
same,Activity,[35],Toxic
same,Activity,Echinococcus granulosus [36],Active
same,Activity,[37],Toxic
same,Activity,Echinococcus granulosus [38],55.97%
same,Activity,Echinococcus granulosus [39],23.4 mg
same,Activity,[40],Toxic
same,Activity,Echinococcus granulosus [41],46.13%
same,Activity,Echinococcus granulosus [42],56.93%
same,Activity,Echinococcus granulosus [43],Active
same,Activity,Echinococcus granulosus [44],100%
same,Activity,Echinococcus granulosus [45],25.1 mg
same,Activity,Echinococcus granulosus [46],27.8 mg
same,Activity,Echinococcus granulosus [47],51.2%
same,Activity,Echinococcus granulosus [48],54.4%
same,Activity,Echinococcus granulosus [49],Active
same,Activity,Echinococcus granulosus [50],24.8 mg
same,Activity,[51],Toxic
same,Activity,[52],Toxic
same,Activity,Echinococcus granulosus [53],Active
COc1cc(OC)cc(-c2nc(C(=O)Nc3ccc(CN4CCC(N5CCCCC5)CC4)cc3)cc3c2[nH]c2ccccc23)c1,Activity,Echinococcus granulosus [7],Active
same,LC50,Echinococcus granulosus [10],7.16 µM
